Measured values reported in patent publication US10023558B2, “Compounds” (CHIESI FARMACEUTICI S.P.A., priority 2016, dated 2018).

Molecular target: T1, human neutrophil elastase (HNE) (Homo sapiens, UniProt P08246)
T1 construct: purchased Sigma E8140
T1 sequence (P08246 30-247 limits assumed): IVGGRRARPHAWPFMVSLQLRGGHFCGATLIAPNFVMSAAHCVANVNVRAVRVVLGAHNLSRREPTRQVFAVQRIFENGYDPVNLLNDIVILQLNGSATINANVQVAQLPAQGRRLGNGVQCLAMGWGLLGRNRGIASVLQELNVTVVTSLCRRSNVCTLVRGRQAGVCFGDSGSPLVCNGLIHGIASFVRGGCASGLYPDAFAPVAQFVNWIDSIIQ
Test: HNE Enzyme Assay (fluorogenic peptide substrate MeOSuc-Ala-Ala-Pro-Val-AMC)
Format: biochemical
Settings: human leukocyte elastase 0.00072 U/mL, substrate 100 μM, 25° C., 30 minutes, at least two separate experiments; read-out: HNE inhibition (IC50 values)
Protocol: Compounds of this invention were tested for potency in a human neutrophil elastase (HNE) enzyme activity assay.
Assays were performed in 96-well plates in a total assay volume of 100 μL. The final concentration of elastase enzyme (human leukocyte elastase, Sigma E8140) was 0.00072 U/mL. The peptide substrate (MeOSuc-Ala-Ala-Pro-Val-AMC, Calbiochem #324740) was used at a final concentration of 100 μM. The final concentration of DMSO was 1% in the assay buffer (0.05M Tris.HCl, 0.1M NaCl, 0.1M CaCl2, 0.0005% Brij-35, pH 7.5). The enzymatic reaction was started by addition of the enzyme and incubated at 25° C. for 30 minutes. After incubation, the reaction was stopped by addition of soybean trypsin inhibitor (Sigma T9003) at a final concentration of 50 μg/well. Fluorescence was measured using a Molecular Devices fluorescence plate reader using 380 nm excitation and 460 nm emission wavelengths.
A concentration response to each compound was performed and the effect of compound in each experiment was expressed as a percentage inhibition of the control enzyme fluorescence. Dose response curves were plotted and compound potency (IC50) was determined. Compounds were tested in at least two separate experiments.

IC50 [nM]	Compound
< 1	Cc1c(-c2ccnn2-c2ccc(C#N)cc2)n(C(=O)NC(C)c2nc(C[N+](C)(C)C)cs2)c(=O)n1-c1cccc(C(F)(F)F)c1 (racemic) [Example 85, ±[2-(1-{[5-[2-(4-Cyano-phenyl)-2H-pyrazol-3-yl]-4-methyl-2-oxo-3-(3-trifluoromethyl-phenyl)-2,3-dihydro-imidazole-1-carbonyl]-amino}-ethyl)-thiazol-4-ylmethyl]-trimethyl-ammonium benzene sulfonate]
< 1	Cc1c(-c2ccnn2-c2ccc(C#N)cc2)n(C(=O)N[C@H]2CC[C@H](CN(C)C)CC2)c(=O)n1-c1cccc(C(F)(F)F)c1 [Example 1, 5-[2-(4-Cyano-phenyl)-2H-pyrazol-3-yl]-4-methyl-2-oxo-3-(3-trifluoromethyl-phenyl)-2,3-dihydro-imidazole-1-carboxylic acid trans-(4-dimethylaminomethyl-cyclohexyl)-amide]
1 to 10	Cc1c(-c2ccnn2-c2ccc(C#N)cc2)n(C(=O)N[C@H]2CCC[C@@H]2OCc2ccccc2)c(=O)n1-c1cccc(C(F)(F)F)c1 [Example 2, 5-[2-(4-Cyano-phenyl)-2H-pyrazol-3-yl]-4-methyl-2-oxo-3-(3-trifluoromethyl-phenyl)-2,3-dihydro-imidazole-1-carboxylic acid ((1S,2S)-2-benzyloxy-cyclopentyl)-amide]
< 1	Cc1c(-c2ccnn2-c2ccc(C#N)cc2)n(C(=O)NC2CCN(C(=O)OCc3ccccc3)CC2)c(=O)n1-c1cccc(C(F)(F)F)c1 [Example 3, 4-{[5-[2-(4-Cyano-phenyl)-2H-pyrazol-3-yl]-4-methyl-2-oxo-3-(3-trifluoromethyl-phenyl)-2,3-dihydro-imidazole-1-carbonyl]-amino}-piperidine-1-carboxylic acid benzyl ester]
< 1	Cc1c(-c2ccnn2-c2ccc(C#N)cc2)n(C(=O)NC2CCN(C(=O)C(F)(F)F)CC2)c(=O)n1-c1cccc(C(F)(F)F)c1 [Example 4, 5-[2-(4-Cyano-phenyl)-2H-pyrazol-3-yl]-4-methyl-2-oxo-3-(3-trifluoromethyl-phenyl)-2,3-dihydro-imidazole-1-carboxylic acid [1-(2,2,2-trifluoro-acetyl)-piperidin-4-yl]-amide]
< 1	Cc1c(-c2ccnn2-c2ccc(C#N)cc2)n(C(=O)N[C@@H](C)c2ccncc2)c(=O)n1-c1cccc(C(F)(F)F)c1 [Example 5, 5-[2-(4-Cyano-phenyl)-2H-pyrazol-3-yl]-4-methyl-2-oxo-3-(3-trifluoromethyl-phenyl)-2,3-dihydro-imidazole-1-carboxylic acid ((S)-1-pyridin-4-yl-ethyl)-amide]
< 1	Cc1c(-c2ccnn2-c2ccc(C#N)cc2)n(C(=O)N[C@H](C)c2ccncc2)c(=O)n1-c1cccc(C(F)(F)F)c1 [Example 6, 5-[2-(4-Cyano-phenyl)-2H-pyrazol-3-yl]-4-methyl-2-oxo-3-(3-trifluoromethyl-phenyl)-2,3-dihydro-imidazole-1-carboxylic acid ((R)-1-pyridin-4-yl-ethyl)-amide]
< 1	COc1ccc(CN2CC3C(C2)C3NC(=O)n2c(-c3ccnn3-c3ccc(C#N)cc3)c(C)n(-c3cccc(C(F)(F)F)c3)c2=O)cc1 (centres unmarked) [Example 7, 5-[2-(4-Cyano-phenyl)-2H-pyrazol-3-yl]-4-methyl-2-oxo-3-(3-trifluoromethyl-phenyl)-2,3-dihydro-imidazole-1-carboxylic acid [3-(4-methoxy-benzyl)-3-aza-bicyclo[3.1.0]hex-6-yl]-amide]
< 1	Cc1c(-c2ccnn2-c2ccc(C#N)cc2)n(C(=O)N[C@H]2CC[C@H](NC(=O)OC(C)(C)C)CC2)c(=O)n1-c1cccc(C(F)(F)F)c1 [Example 8, (Trans-4-{[5-[2-(4-cyano-phenyl)-2H-pyrazol-3-yl]-4-methyl-2-oxo-3-(3-trifluoromethyl-phenyl)-2,3-dihydro-imidazole-1-carbonyl]-amino}-cyclohexyl)-carbamic acid tert-butyl ester]
< 1	Cc1c(-c2ccnn2-c2ccc(C#N)cc2)n(C(=O)N[C@H]2CC[C@H](N(C)C)CC2)c(=O)n1-c1cccc(C(F)(F)F)c1 [Example 9, 5-[2-(4-Cyano-phenyl)-2H-pyrazol-3-yl]-4-methyl-2-oxo-3-(3-trifluoromethyl-phenyl)-2,3-dihydro-imidazole-1-carboxylic acid (trans-4-dimethylamino-cyclohexyl)-amide]
< 1	Cc1c(-c2ccnn2-c2ccc(C#N)cc2)n(C(=O)N[C@@H]2C[C@@H]3CN(C(=O)OC(C)(C)C)C[C@@H]3C2)c(=O)n1-c1cccc(C(F)(F)F)c1 [Example 10, (3aS,5R,6aR)-5-{[5-[2-(4-Cyano-phenyl)-2H-pyrazol-3-yl]-4-methyl-2-oxo-3-(3-trifluoromethyl-phenyl)-2,3-dihydro-imidazole-1-carbonyl]-amino}-hexahydro-cyclopenta[c]pyrrole-2-carboxylic acid tert-butyl ester]
< 1	Cc1c(-c2ccnn2-c2ccc(C#N)cc2)n(C(=O)N[C@@H](C)C(=O)N2CCN(C)CC2)c(=O)n1-c1cccc(C(F)(F)F)c1 [Example 11, 5-[2-(4-Cyano-phenyl)-2H-pyrazol-3-yl]-4-methyl-2-oxo-3-(3-trifluoromethyl-phenyl)-2,3-dihydro-imidazole-1-carboxylic acid [(S)-1-methyl-2-(4-methyl-piperazin-1-yl)-2-oxo-ethyl]-amide]
< 1	Cc1c(-c2ccnn2-c2ccc(C#N)cc2)n(C(=O)N[C@H]2C[C@@H]3CN(C(=O)OC(C)(C)C)C[C@@H]3C2)c(=O)n1-c1cccc(C(F)(F)F)c1 [Example 12, (3aR,5S,6aS)-5-{[5-[2-(4-Cyano-phenyl)-2H-pyrazol-3-yl]-4-methyl-2-oxo-3-(3-trifluoromethyl-phenyl)-2,3-dihydro-imidazole-1-carbonyl]-amino}-hexahydro-cyclopenta[c]pyrrole-2-carboxylic acid tert-butyl ester]
< 1	Cc1c(-c2ccnn2-c2ccc(C#N)cc2)n(C(=O)N[C@@H](C)C(=O)NC2CCN(C)CC2)c(=O)n1-c1cccc(C(F)(F)F)c1 [Example 13, 5-[2-(4-Cyano-phenyl)-2H-pyrazol-3-yl]-4-methyl-2-oxo-3-(3-trifluoromethyl-phenyl)-2,3-dihydro-imidazole-1-carboxylic acid [(S)-1-(1-methyl-piperidin-4-ylcarbamoyl)-ethyl]-amide]
< 1	Cc1c(-c2ccnn2-c2ccc(C#N)cc2)n(C(=O)N[C@@H](C)c2ccc(CN(C)C)cc2)c(=O)n1-c1cccc(C(F)(F)F)c1 [Example 14, 5-[2-(4-Cyano-phenyl)-2H-pyrazol-3-yl]-4-methyl-2-oxo-3-(3-trifluoromethyl-phenyl)-2,3-dihydro-imidazole-1-carboxylic acid [(S)-1-(4-dimethylaminomethyl-phenyl)-ethyl]-amide]
< 1	Cc1c(-c2ccnn2-c2ccc(C#N)cc2)n(C(=O)NC2CCN(C(=O)CCN(C)C)CC2)c(=O)n1-c1cccc(C(F)(F)F)c1 [Example 15, 5-[2-(4-Cyano-phenyl)-2H-pyrazol-3-yl]-4-methyl-2-oxo-3-(3-trifluoromethyl-phenyl)-2,3-dihydro-imidazole-1-carboxylic acid [1-(3-dimethylamino-propionyl)-piperidin-4-yl]-amide]
< 1	Cc1c(-c2ccnn2-c2ccc(C#N)cc2)n(C(=O)N[C@@H](C)c2ncc(CN(C)C)o2)c(=O)n1-c1cccc(C(F)(F)F)c1 [Example 16, 5-[2-(4-Cyano-phenyl)-2H-pyrazol-3-yl]-4-methyl-2-oxo-3-(3-trifluoromethyl-phenyl)-2,3-dihydro-imidazole-1-carboxylic acid [(S)-1-(5-dimethylaminomethyl-oxazol-2-yl)-ethyl]-amide]
< 1	Cc1c(-c2ccnn2-c2ccc(C#N)cc2)n(C(=O)NC2CCN(C(=O)CN(C)C)CC2)c(=O)n1-c1cccc(C(F)(F)F)c1 [Example 17, 5-[2-(4-Cyano-phenyl)-2H-pyrazol-3-yl]-4-methyl-2-oxo-3-(3-trifluoromethyl-phenyl)-2,3-dihydro-imidazole-1-carboxylic acid [1-(2-dimethylamino-acetyl)-piperidin-4-yl]-amide]
< 1	Cc1c(-c2ccnn2-c2ccc(C#N)cc2)n(C(=O)N[C@@H](C)C(=O)N(C)CC2CCN(C)CC2)c(=O)n1-c1cccc(C(F)(F)F)c1 [Example 18, 5-[2-(4-Cyano-phenyl)-2H-pyrazol-3-yl]-4-methyl-2-oxo-3-(3-trifluoromethyl-phenyl)-2,3-dihydro-imidazole-1-carboxylic acid {(S)-1-[methyl-(1-methyl-piperidin-4-ylmethyl)-carbamoyl]-ethyl}-amide]
< 1	Cc1c(-c2ccnn2-c2ccc(C#N)cc2)n(C(=O)N[C@@H](C)C(=O)N2CCC(N(C)C)CC2)c(=O)n1-c1cccc(C(F)(F)F)c1 [Example 19, 5-[2-(4-Cyano-phenyl)-2H-pyrazol-3-yl]-4-methyl-2-oxo-3-(3-trifluoromethyl-phenyl)-2,3-dihydro-imidazole-1-carboxylic acid [(S)-2-(4-dimethylamino-piperidin-1-yl)-1-methyl-2-oxo-ethyl]-amide]
